Values of other authors as cited in US20050084461A1, “Tooth enamel rejuvenating toothpaste” (priority 2003, published 2005).

Settings: pH of about 7.0, temperature of about 25° C.

For `O.O.O=P([O-])([O-])O.[Ca+2]` [dicalcium phosphate dihydrate], the “calcium cations released in aqueous solution” value is listed as “about 40 ppm”.
